Columns and labels:
5-HT receptors = conditions: cited from earlier work
[1] = in vivo; cited from earlier work
rats [2] = conditions: cited from earlier work
humans = conditions: cited from earlier work
human participants = conditions: 0.03 mg/kg delivered daily; cited from earlier work
5HT2A receptors = 5HT2A receptors (Homo sapiens, UniProt P28223); conditions: cited from earlier work
male fosTRAP2×Ai14 mice = assay: Two-bottle choice (water vs 20% ethanol) drinking after ethanol exposure; format: in vivo; conditions: for ethanol preference, within-group mean difference week 1 vs. week 3: follow-up week 1 (after dose 1) vs week 3 (after dose 2); for ethanol consumption, mean difference Saline vs. treatment: planned contrast across 4 follow-up weeks, LSD 50 ug/kg or BOL-148 3.0 mg/kg intraperitoneal; for effect of treatment on alcohol preference (summary) / additive effect of a second dose on alcohol preference: summary in words; for additive effect of a second dose on alcohol preference: two doses, weeks 1 and 3
Source text: Twenty-five adult (12-30-week old), male fosTRAP2×Ai14 mice were bred in-house. Generation of the fosTRAP2 and FosTRAP lines were previously described (Guenthner, et al.). fosTRAP2 mice were crossed with Ai14 mice to obtain the mice used in this study. Mice were single-housed on a reverse light-dark cycle and given unlimited access to standard mouse chow and water. Animals were given a week to habituate to single housing, after which they were given free access to 2 bottles containing water and 20% ethanol for 24-hour periods beginning at the start of their dark cycle, 5 days per week (Monday-Friday) for 4 weeks (ethanol exposure). Amount of water and ethanol consumed (by volume and weight) were measured for each mouse across the final 5 days of the ethanol exposure period, and ethanol preference was counterbalanced across treatment group by the mean ethanol preference by weight (corrected for body weight) during this period.
Following 4 weeks of ethanol exposure, animals were administered one of 3 treatments via a single intraperitoneal injection 10 minutes prior to onset of the dark cycle/day one in a five-day cycle of alcohol exposure: saline, LSD 50 ug/kg, or BOL-148 3.0 mg/kg. Following administration of treatment, animals were placed back into their home cages with free access to standard mouse chow and water. After 10 minutes, 12 animals from each treatment group were given free access to 2 bottles containing water and 20% ethanol for 24 hours daily for 4 weeks (alcohol preference). Amount of water and ethanol consumed (by volume and weight) were measured daily at the end of the light cycle. Positions of bottles containing water and 20% ethanol were alternated daily to prevent the formation of place preference. An additional 2-4 animals per treatment group were given free access to standard mouse chow and water, and ambulatory activity as well as head-twitching behavior (thought to correspond with hallucinogenicity of substances in mice), was measured for 35 minutes following treatment.
For all hypotheses, data were analyzed using Mixed Models for Repeated Measures (MMRM), including fixed effects of Treatment (Saline, BOL, LSD), Week (1-4), Day (1-5), and two- and three-way interactions between Treatment and Day/Week. Repeated Effects were represented as a nested within-subjects variable (days within weeks). Data were analyzed separately for each of 3 dependent variables: ethanol consumption (mg and ml consumed), ethanol preference (ethanol consumption/total fluid consumption), and total fluid consumption (mg and ml consumed). For hypothesis 1a, a priori between-group comparisons are performed to contrast ethanol consumption, ethanol preference, and total fluid consumption between the vehicle- and LSD-treated groups. For hypothesis 1b, a priori between-group comparisons are performed to contrast ethanol consumption, ethanol preference, and total fluid consumption between the LSD-treated group at follow-up weeks 1 versus 3. For hypothesis 2a, a priori between-group comparisons are performed to contrast ethanol consumption, ethanol preference, and total fluid consumption between the vehicle- and BOL-148-treated groups. For hypothesis 2b, a priori between-group comparisons are performed to contrast ethanol consumption, ethanol preference, and total fluid consumption between the LSD- and BOL-148-treated groups. For each hypothesis, with 3 groups of 5-10 animals (total n=25) and 20 days of repeated measurements (autocorrelation=0.5), there is power of 0.8 to detect moderately-sized effects of approximately d=0.3 at alpha=0.05.

rats [3] = conditions: cited from earlier work; remark: listed apart in the source
[4] = tested on: participants with alcoholism; conditions: 1 to 6 DPT sessions; cited from earlier work
[5] = tested on: participants with alcoholism; conditions: DPT treatment vs conventional treatment; cited from earlier work
5HT1A receptors = biological target: T1, 5HT1A receptors (Homo sapiens, UniProt P08908); conditions: cited from earlier work
T1 sequence (P08908 1-422): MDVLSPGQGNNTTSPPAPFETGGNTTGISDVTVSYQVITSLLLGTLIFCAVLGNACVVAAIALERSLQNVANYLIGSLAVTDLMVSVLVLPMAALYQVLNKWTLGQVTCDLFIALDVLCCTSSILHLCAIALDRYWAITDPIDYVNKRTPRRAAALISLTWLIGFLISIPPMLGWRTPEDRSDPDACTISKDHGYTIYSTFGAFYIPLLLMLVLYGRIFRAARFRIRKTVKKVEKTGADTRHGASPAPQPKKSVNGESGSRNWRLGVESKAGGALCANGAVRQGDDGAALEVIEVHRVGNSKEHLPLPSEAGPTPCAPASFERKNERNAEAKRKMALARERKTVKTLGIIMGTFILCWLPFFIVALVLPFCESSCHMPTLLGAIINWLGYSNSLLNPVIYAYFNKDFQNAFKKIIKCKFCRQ

rodents = conditions: cited from earlier work
dopamine receptors = conditions: cited from earlier work
C57BL/6J mice = conditions: cited from earlier work
[6] = tested on: participants with alcohol dependence; conditions: single high-dose LSD session vs control, six trials; cited from earlier work
[7] = LSD 50 ug/kg or BOL-148 3.0 mg/kg IP

5HT2A receptors, sequence (P28223 whole entry): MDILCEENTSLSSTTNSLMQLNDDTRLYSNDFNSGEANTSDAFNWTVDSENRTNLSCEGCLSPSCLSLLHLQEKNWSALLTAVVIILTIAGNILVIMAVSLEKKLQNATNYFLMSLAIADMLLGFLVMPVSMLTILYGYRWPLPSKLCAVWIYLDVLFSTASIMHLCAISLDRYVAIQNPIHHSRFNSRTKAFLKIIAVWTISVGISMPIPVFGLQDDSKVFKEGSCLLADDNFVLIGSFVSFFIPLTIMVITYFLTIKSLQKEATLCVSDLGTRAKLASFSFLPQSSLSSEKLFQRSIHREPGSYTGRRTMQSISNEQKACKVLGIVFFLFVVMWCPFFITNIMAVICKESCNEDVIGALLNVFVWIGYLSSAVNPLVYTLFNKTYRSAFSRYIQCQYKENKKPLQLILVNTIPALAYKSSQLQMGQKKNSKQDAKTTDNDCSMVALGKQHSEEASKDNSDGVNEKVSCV

CCN(CC)C(=O)[C@@H]1C=C2c3cccc4[nH]c(Br)c(c34)C[C@H]2N(C)C1 [BOL-148, 2-bromo-lysergic acid diethylamide]
effect on 5-HT receptors (5-HT receptors): neutral antagonist | psychedelic activity [1]: inactive as a psychedelic | blockade of the effects of LSD by pre-treatment (rats [2]): will not block the effects of LSD | blockade of the effects of LSD in humans (humans): could block the effects of LSD | effect on cluster headaches (human participants): effective at reducing cluster headaches | activity at 5HT2A receptors (5HT2A receptors): 5HT2A antagonist activity | ethanol preference, within-group mean difference week 1 vs. week 3 (male fosTRAP2×Ai14 mice; [7]): 0.119 | ethanol consumption, mean difference Saline vs. treatment (male fosTRAP2×Ai14 mice): 0.004 mg total ethanol consumed/mg of body weight | effect of treatment on alcohol preference (summary) (male fosTRAP2×Ai14 mice): modest effect | additive effect of a second dose on alcohol preference (male fosTRAP2×Ai14 mice): an additive effect of BOL-148 was found

COc1cc(CC(C)N)c(OC)cc1I (stereo not shown) [DOI, 2,5-dimethoxy-4-iodoamphetamine]
effect on alcohol preference (rats [3]): reduce alcohol preference

CCCN(CCC)CCc1c[nH]c2ccccc12 [DPT, Dipropyltryptamine]
clinical outcomes including abstinence at 6 months [4]: highly significant improvement | clinical outcomes at 6 month follow-up vs other groups [5]: no significant differences

CCN(CC)C(=O)[C@@H]1C=C2c3cccc4[nH]cc(c34)C[C@H]2N(C)C1 [LSD, lysergic acid diethylamide]
activity at 5HT1A receptors (5HT1A receptors): potent agonist | range of doses that reliably produce accurate responding in a discrimination task or head twitch response (rodents): 0.17 to 0.2 mg/kg | activity at dopamine receptors (dopamine receptors): partial agonist | effect on alcohol consumption and alcohol preference (C57BL/6J mice; acute administration of 50 ug/kg LSD, C57BL/6J mice): robust and lasting reduction | duration of observation over which reduced ethanol consumption was shown (C57BL/6J mice; mice, 25 μg/kg LSD): 46 days | group mean reduction of ethanol consumption relative to controls (C57BL/6J mice; mice, 25 μg/kg LSD): 17.9% | activity at 5HT2A receptors (5HT2A receptors): partial agonist | ethanol preference, mean difference LSD vs. BOL-148 (male fosTRAP2×Ai14 mice; LSD 50 ug/kg versus BOL-148 3.0 mg/kg treated groups): 0.081 | ethanol preference, within-group mean difference week 1 vs. week 3 (male fosTRAP2×Ai14 mice; [7]): 0.014 | ethanol consumption, mean difference Saline vs. treatment (male fosTRAP2×Ai14 mice): 0.050 mg total ethanol consumed/mg of body weight | ethanol preference (ethanol consumption/total fluid consumption), mean difference Saline vs. treatment (male fosTRAP2×Ai14 mice; planned contrast across follow-up, LSD 50 ug/kg or BOL-148 3.0 mg/kg IP): 0.168 | ethanol consumption, mean difference Saline vs. LSD, Week 1 (male fosTRAP2×Ai14 mice; post-hoc, Week 1 (injection week), LSD 50 ug/kg IP): 0.062 mg total ethanol consumed/mg of body weight | ethanol consumption, mean difference Saline vs. LSD, Week 2 (male fosTRAP2×Ai14 mice; post-hoc, Week 2 (non-injection week), LSD 50 ug/kg IP): 0.077 mg total ethanol consumed/mg of body weight | ethanol consumption, mean difference Saline vs. LSD, Week 3 (male fosTRAP2×Ai14 mice; post-hoc, Week 3 (injection week), LSD 50 ug/kg IP): −0.029 mg total ethanol consumed/mg of body weight | ethanol consumption, mean difference Saline vs. LSD, Week 4 (male fosTRAP2×Ai14 mice; post-hoc, Week 4 (non-injection week), LSD 50 ug/kg IP): 0.089 mg total ethanol consumed/mg of body weight | effect of treatment on alcohol preference (summary) (male fosTRAP2×Ai14 mice): becomes apparent immediately, and remains stable for weeks | additive effect of a second dose on alcohol preference (male fosTRAP2×Ai14 mice): An additive effect was not found | odds of improvement at first post-treatment follow-up (OR) [6]: 1.96

Reference: patent US20250367189A1, “2-BROMO-LYSERGIC ACID DI[…] SUBSTANCE ABUSE” (Ceruvia Lifesciences LLC, priority 2020, published 2025)
